According to US20260042770A1, “NOVEL SULFONES AND THEIR USE AS NEUROPROTECTIVE AND/OR NEURORESTORATIVE AGENTS” (GENECODE, priority 2022, published 2026):

The compounds below were run against T1, GFRα1-RET (Homo sapiens, UniProt P56159) (assay: Elk1 luciferase reporter-gene assay in cells expressing GFRα1-RET). Settings: agonist/activator activity of Elk1 signaling; MG87 murine fibroblast stably transfected with PathDetect Elk-1, GFRα1 and RET; 6 concentrations, duplicate, two independent runs.
T1 construct: expressed in transfected cells; host or cells: MG87 murine fibroblasts stably transfected with PathDetect Elk-1, GFRα1 and RET
T1 sequence (P56159 25-429 limits assumed): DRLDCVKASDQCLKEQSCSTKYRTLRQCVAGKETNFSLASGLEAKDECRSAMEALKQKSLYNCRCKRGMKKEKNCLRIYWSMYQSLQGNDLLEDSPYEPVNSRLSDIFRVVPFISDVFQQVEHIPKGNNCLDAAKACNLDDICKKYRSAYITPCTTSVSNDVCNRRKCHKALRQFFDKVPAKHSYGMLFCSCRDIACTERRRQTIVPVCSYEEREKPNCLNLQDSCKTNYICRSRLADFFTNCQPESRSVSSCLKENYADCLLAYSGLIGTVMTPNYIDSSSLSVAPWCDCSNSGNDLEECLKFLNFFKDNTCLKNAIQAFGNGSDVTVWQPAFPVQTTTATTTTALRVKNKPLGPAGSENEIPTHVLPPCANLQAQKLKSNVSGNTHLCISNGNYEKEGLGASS
Assay type: cell-based
Experimental: For EC50 determination, a dose-response test was performed using 6 concentrations of each tested compound. Dose-response curves were fitted using the sigmoidal dose-response (variable slope) analysis in GraphPad Prism program (Graph Pad Inc) and EC50 of agonist/activator activity was calculated. Dose-response experiments were all performed in duplicate, two times independently.

Row | SMILES | EC50 [µM]
1 | COc1ccc(S(=O)(=O)C2CCCC2)cc1N1CCN(C(=O)c2ccc(F)cc2Cl)CC1C (racemic) [Cpd 006, (2-chloro-4-fluoro-phenyl)-[rac-(3S)-4-(5-cyclopentylsulfonyl-2-methoxy-phenyl)-3-methyl-piperazin-1-yl]methanone] | 1 to 10
2 | COc1ccc(S(=O)(=O)CC2CCCC2)cc1N1CCN(C(=O)c2ccc(F)cc2Cl)CC1 [Cpd 013, (2-chloro-4-fluoro-phenyl)-[4-[5-(cyclopentylmethylsulfonyl)-2-methoxy-phenyl]piperazin-1-yl]methanone] | 1 to 10
3 | CCC(CC)S(=O)(=O)c1ccc(OC)c(N2[C@@H]3CC[C@H]2CN(C(=O)c2ccc(F)cc2Cl)C3)c1 [Cpd 005, (2-chloro-4-fluoro-phenyl)-[(1S,5R)-8-[5-(1-ethylpropylsulfonyl)-2-methoxy-phenyl]-3,8-diazabicyclo[3.2.1]octan-3-yl]methanone] | 1 to 10
4 | COc1ccc(S(=O)(=O)C2CCCC2)cc1N1[C@@H]2CC[C@H]1CN(C(=O)c1ccc(F)cc1Cl)C2 [Cpd 004, (2-chloro-4-fluoro-phenyl)-[(1S,5R)-8-(5-cyclopentylsulfonyl-2-methoxy-phenyl)-3,8-diazabicyclo[3.2.1]octan-3-yl]methanone] | 1 to 10
5 | O=C(c1ccc(F)cc1Cl)N1C[C@H]2CC[C@@H](C1)N2c1cc(S(=O)(=O)C2CCN(CCc3ccccc3)CC2)ccc1O [Cpd 031, (2-chloro-4-fluoro-phenyl)-[(1S,5R)-8-[2-hydroxy-5-[[1-(2-phenylethyl)-4-piperidyl]sulfonyl]phenyl]-3,8-diazabicyclo[3.2.1]octan-3-yl]methanone] | 1 to 10
6 | CC(C)(C)CS(=O)(=O)c1cc(Cl)c(OCCO)c(N2[C@@H]3CC[C@H]2CN(C(=O)c2ccc(F)cc2Cl)C3)c1 [Cpd 034, [(1S,5R)-8-[3-chloro-5-(2,2-dimethylpropylsulfonyl)-2-(2-hydroxyethoxy)phenyl]-3,8-diazabicyclo[3.2.1]octan-3-yl]-(2-chloro-4-fluoro-phenyl)methanone] | 1 to 10
7 | CCC(CCc1ccccc1)S(=O)(=O)c1ccc(OC)c(N2C3CCC2CN(C(=O)c2ccc(F)cc2Cl)C3)c1 (racemic) [Cpd 025, (2-chloro-4-fluoro-phenyl)-[(1S,5R)-8-[5-[(1SR)-1-ethyl-3-phenyl-propyl]sulfonyl-2-methoxy-phenyl]-3,8-diazabicyclo[3.2.1]octan-3-yl]methanone] | 1 to 10
